Experimental data as given in patent publication EP0386611A2, “Amino acid derivatives” (F. HOFFMANN-LA ROCHE AG, priority 1989, dated 1990).
Read-outs that look alike come from different tables or passages of the source.

How the values were obtained:
HIV protease = biological target: T1, HIV protease (Human immunodeficiency virus type 1 group M subtype B, UniProt P04585); experiment: In vitro inhibition of HIV protease (spectrophotometric assay of N-terminal proline from cleavage of substrate S¹ or S²); type: biochemical; details: citrate buffer pH 5.5, 37°C
T1 construct: HIV protease was expressed in E. coli and partially purified from soluble extracts; made in house; host or cells: E. coli
Method: HIV protease was expressed in E. coli and partially purified from soluble extracts of the bacterium by ammonium sulphate fractionation (0-30%). Protease activity was assayed using as the substrate the protected hexapeptide succinyl-Ser-Leu-Asn-Tyr-Pro-Ile isobutylamide (S¹) or the protected heptapeptide succinyl-Val-Ser-Gln-Asn-Phe-Pro-Ile isobutylamide (S²). Cleavage of the substrate was quantified by measuring the production of H-Pro-Ile isobutylamide by the spectrophotometric assay of N-terminal proline.
1.25 mM of substrate S¹ or 0.68 mM of substrate S² were dissolved in 125 mM of citrate buffer (pH 5.5) containing 0.125 mg/ml of Tween 20. 10 µl of a solution of various concentrations of the test compound (dissolved in methanol or dimethyl sulphoxide and diluted with water containing 0.1% Tween 20) and 10 µl of protease were added to 80 µl of the respective buffered substrate. Digestion was carried out at 37°C for a fixed period of time and was terminated by the addition of 1 ml of colour reagent [30 µg/ml of isatin and 1.5 mg/ml of 2-(4-chlorobenzoyl)benzoic acid in 10% acetone in ethanol (vol./vol.)]. The solution was heated in a boiling water bath for 15 minutes and then the pigmented residues were re-dissolved in 1 ml of 1% pyrogallol in 33% water in acetone (wt./vol./vol.). The optical density of the solution was measured spectrophotometrically at 599 nm. The formation of H-Pro-Ile isobutylamide in the presence of the test compound was compared with controls and the concentration of test compound required to give 50% inhibition (IC₅₀) was determined by means of a graph plotted from the various concentrations of test compound used.
In the above test the determination of the IC₅₀ values for potent inhibitors is limited by mutual depletion. In this respect, substrate S² is more sensitive than substrate S¹ and this allows reduced protease concentrations to be used, which results in lower IC₅₀ values. This will be seen from the results presented in the Table hereinafter where in turn the 2nd run with substrate S² was carried out using a lower protease concentration than in the 1st run which results again in lower IC₅₀ values.

HTLV-III (strain RF) = experiment: In vitro antiviral activity: HTLV-III (strain RF) in C8166 cells, p24 antigen capture assay; type: cell-based; details: Human immunodeficiency virus 1; concentration that produces 50% protection; C8166 cells infected with ten times the TCD₅₀, 72 hours at 37°C, viral protein 24 antigen capture; read-out: IC₅₀ Activity against HIV
Method: This assay uses HTLV-III (strain RF) grown in C8166 cells (a human CD4⁺ T lymphoblastoid line) using RPM1 1640 medium with bicarbonate buffer, antibiotics and 10% foetal bovine serum.
A suspension of cells is infected with ten times the TCD₅₀ of virus and adsorption allowed to proceed for 90 minutes at 37°C. The cells are washed three times with medium. The test is carried out in 6 ml tissue culture tubes, each tube containing 2 x 10⁵ infected cells in 1.5 ml of medium. Test compounds are dissolved in either aqueous medium or dimethyl sulphoxide, according to solubility, and a 15 µl solution of the compound added. The cultures are incubated at 37°C for 72 hours in a humidified atmosphere containing 5% carbon dioxide in air. The cultures are then centrifuged and an aliquot of the supernatant solubilized with Nonidet P40 and subjected to an antigen capture assay which uses a primary antiserum with particular reactivity against the viral protein 24 and a horseradish peroxidase detection system. Colour generation is measured spectrophotometrically and plotted against the concentration of test compound. The concentration that produces 50% protection is determined (IC₅₀).

[1] = substrate S² (succinyl-Val-Ser-Gln-Asn-Phe-Pro-Ile isobutylamide), 0.68 mM, 1st run, read-out: IC₅₀ Inhibition of HIV protease S² 1st run
[2] = substrate S², 0.68 mM, 2nd run, lower protease concentration than in the 1st run, read-out: IC₅₀ Inhibition of HIV protease S² 2nd run
[3] = substrate S¹ (succinyl-Ser-Leu-Asn-Tyr-Pro-Ile isobutylamide), 1.25 mM, read-out: IC₅₀ Inhibition of HIV protease S¹

Structure (SMILES)	IC50 (HIV protease; [1])	IC50 (HIV protease; [2])	IC50 (HIV protease; [3])	IC50 (HTLV-III (strain RF))
CC[C@H](C)[C@H](NC(=O)[C@@H](C[C@H](O)[C@H](CC1CCCCC1)NC(=O)OC(C)(C)C)C(C)C)C(=O)NCCc1ccccc1 [Compound A, N²-[5(S)-(tert.Butoxyformamido)-6-cyclohexyl-4(S)-hydroxy-2(S)-isopropylhexanoyl]-N¹-phenethyl-L-isoleucinamide]	4.5 nM	0.62 nM	12 nM	100 nM
CC[C@H](C)[C@H](NC(=O)[C@@H](C[C@H](O)[C@H](CC1CCCCC1)NC(=O)OC(C)(C)C)C(C)C)C(=O)N[C@@H](Cc1ccccc1)C(=O)OC [Compound B, N-[N-[5(S)-(tert.Butoxyformamido)-6-cyclohexyl-4(S)-hydroxy-2(S)-isopropylhexanoyl]-L-isoleucyl]-L-phenylalanine methyl ester]	3.4 nM	0.48 nM	20 nM	–
CC[C@H](C)[C@H](NC(=O)[C@@H](C[C@H](O)[C@H](CC1CCCCC1)NC(=O)OC(C)(C)C)C(C)C)C(=O)NCc1ccccc1 [Compound C, N²-[5(S)-(tert.Butoxyformamido)-6-cyclohexyl-4(S)-hydroxy-2(S)-isopropylhexanoyl]-N¹-benzyl-L-isoleucinamide]	3.3 nM	–	15 nM	7 nM
CC[C@H](C)[C@H](NC(=O)[C@@H](C[C@H](O)[C@H](CC1CCCCC1)NC(=O)OC(C)(C)C)C(C)C)C(=O)NCCc1ccccn1 [Compound D, N²-[5(S)-(tert.Butoxyformamido)-6-cyclohexyl-4(S)-hydroxy-2(S)-isopropylhexanoyl]-N¹-[2-(2-pyridyl)ethyl]-L-isoleucinamide]	2.5 nM	0.52 nM	–	20 nM
CC[C@H](C)[C@H](NC(=O)[C@@H](C[C@H](O)[C@H](CC1CCCCC1)NC(=O)OC(C)(C)C)C(C)C)C(=O)NC1Cc2ccccc2C1 [Compound E, N²-[5(S)-(tert.Butoxyformamido)-6-cyclohexyl-4(S)-hydroxy-2(S)-isopropylhexanoyl]-N¹-(2-indanyl)-L-isoleucinamide]	4.3 nM	2.2 nM	–	70 nM
CC[C@H](C)[C@H](NC(=O)[C@@H](C[C@H](O)[C@H](CC1CCCCC1)NC(=O)OC(C)(C)C)C(C)C)C(=O)NCCN1CCOCC1 [Compound F, N²-[5(S)-(tert.Butoxyformamido)-6-cyclohexyl-4(S)-hydroxy-2(S)-isopropylhexanoyl]-N¹-(2-morpholinoethyl)-L-isoleucinamide]	4 nM	1.9 nM	–	100 nM
CC[C@H](C)[C@H](NC(=O)[C@@H](C[C@H](O)[C@H](Cc1ccccc1)NC(=O)OC(C)(C)C)C(C)C)C(=O)NCCc1ccccc1 [Compound G, N²-[5(S)-(tert.Butoxyformamido)-4(S)-hydroxy-2(S)-isopropyl-6-phenylhexanoyl]-N¹-phenethyl-L-isoleucinamide]	4.1 nM	0.89 nM	32 nM	100 nM
CC[C@H](C)[C@H](NC(=O)[C@@H](C[C@H](O)[C@H](CC1CCCCC1)NC(=O)OCc1ccccc1)C(C)C)C(=O)NCCc1ccccc1 [Compound H, N²-[5(S)-Benzyloxyformamido-6-cyclohexyl-4(S)-hydroxy-2(S)-isopropylhexanoyl]-N¹-phenethyl-L-isoleucinamide]	3 nM	0.91 nM	22 nM	60 nM
CC[C@H](C)[C@H](NC(=O)[C@@H](C[C@H](O)[C@H](CC1CCCCC1)NC(=O)[C@H](CC(N)=O)NC(=O)OCc1ccccc1)C(C)C)C(=O)NCCc1ccccc1 [Compound I, N²-[5(S)-[[N-(Benzyloxycarbonyl)-L-asparaginyl]amino]-6-cyclohexyl-4(S)-hydroxy-2(S)-isopropylhexanoyl]-N¹-phenethyl-L-isoleucinamide]	2.5 nM	0.39 nM	80 nM	9 nM
CC[C@H](C)[C@H](NC(=O)[C@@H](C[C@H](O)[C@H](CC1CCCCC1)NC(=O)CC(C)(C)C)C(C)C)C(=O)NCCc1ccccc1 [Compound J, N²-[5(S)-(tert.Butylacetamido)-6-cyclohexyl-4(S)-hydroxy-2(S)-isopropylhexanoyl]-N¹-phenethyl-L-isoleucinamide]	7.7 nM	–	–	100 nM
CC[C@H](C)[C@H](NC(=O)[C@@H](C[C@H](O)[C@H](CC1CCCCC1)NC(=O)[C@H](CC#N)NC(=O)OCc1ccccc1)C(C)C)C(=O)NCCc1ccccc1 [Compound K, N²-[5(S)-[[N-(Benzyloxycarbonyl)-β-cyano-L-alanyl]amino]-6-cyclohexyl-4(S)-hydroxy-2(S)-isopropylhexanoyl]-N¹-phenethyl-L-isoleucinamide]	–	1.6 nM	–	4 nM
CC[C@H](C)[C@H](NC(=O)[C@@H](C[C@H](O)[C@H](CC1CCCCC1)NC(=O)OC(C)(C)C)C(C)C)C(=O)NCCN1CCN(C(=O)OCc2ccccc2)CC1 [Compound L, N¹-[2-[4-(Benzyloxycarbonyl)-1-piperazinyl]ethyl]-N²-[5(S)-(tert.butoxyformamido)-6-cyclohexyl-4(S)-hydroxy-2(S)-isopropylhexanoyl]-L-isoleucineamide]	–	2.7 nM	–	5 nM
CC[C@H](C)[C@H](NC(=O)[C@@H](C[C@H](O)[C@H](CC1CCCCC1)NC(=O)OC(C)(C)C)C(C)C)C(=O)NCCc1ccc(O)cc1 [Compound M, N²-[5(S)-(tert.Butoxyformamido)-6-cyclohexyl-4(S)-hydroxy-2(S)-isopropylhexanoyl]-N¹-[2-(4-hydroxyphenyl)ethyl]-L-isoleucinamide]	–	3.7 nM	–	10 nM
CC[C@H](C)[C@H](NC(=O)[C@H](C(C)C)[C@@H](O)[C@H](O)[C@H](CC1CCCCC1)NC(=O)OC(C)(C)C)C(=O)NCCN1CCN(C(=O)OCc2ccccc2)CC1 [Compound N, N¹-[2-[4-(Benzyloxycarbonyl)-1-piperazinyl]ethyl]-N²-[5(S)-(tert.butoxyformamido)-6-cyclohexyl-3(R),4(R)-dihydroxy-2(R)-isopropylhexanoyl]-L-isoleucinamide]	–	4.1 nM	–	< 100 nM
